Test results from patent US11530213B2, “Naphthyridinone derivatives and their use in the treatment of arrhythmia” (NOVARTIS AG, priority 2016, dated 2022).

What follows are molecules tested against GIRK1/4 (Homo sapiens (Human), UniProt P48544+P48549) (assay: GIRK1/4 inhibition, Quattro (IonWorks) population patch clamp, inward potassium current in GIRK 1/4 HEK293 stable cells (test assay No. 1)). Settings: percentage of current inhibition normalized to DMSO-only control.
GIRK1/4, sequence (P48549 whole entry): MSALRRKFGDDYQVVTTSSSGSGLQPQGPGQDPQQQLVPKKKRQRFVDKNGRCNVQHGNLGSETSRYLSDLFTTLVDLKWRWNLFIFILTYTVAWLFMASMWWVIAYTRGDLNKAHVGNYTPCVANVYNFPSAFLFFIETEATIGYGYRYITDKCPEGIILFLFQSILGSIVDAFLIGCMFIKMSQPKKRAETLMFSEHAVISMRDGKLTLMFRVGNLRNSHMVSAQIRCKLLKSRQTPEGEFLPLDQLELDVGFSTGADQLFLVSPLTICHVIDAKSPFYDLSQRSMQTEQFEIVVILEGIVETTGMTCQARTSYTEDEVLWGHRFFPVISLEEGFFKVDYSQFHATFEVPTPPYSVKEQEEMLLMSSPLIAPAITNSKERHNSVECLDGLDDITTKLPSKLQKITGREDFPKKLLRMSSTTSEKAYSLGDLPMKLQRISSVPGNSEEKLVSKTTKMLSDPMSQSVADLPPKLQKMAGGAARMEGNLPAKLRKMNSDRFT
GIRK1/4, sequence (P48544 whole entry): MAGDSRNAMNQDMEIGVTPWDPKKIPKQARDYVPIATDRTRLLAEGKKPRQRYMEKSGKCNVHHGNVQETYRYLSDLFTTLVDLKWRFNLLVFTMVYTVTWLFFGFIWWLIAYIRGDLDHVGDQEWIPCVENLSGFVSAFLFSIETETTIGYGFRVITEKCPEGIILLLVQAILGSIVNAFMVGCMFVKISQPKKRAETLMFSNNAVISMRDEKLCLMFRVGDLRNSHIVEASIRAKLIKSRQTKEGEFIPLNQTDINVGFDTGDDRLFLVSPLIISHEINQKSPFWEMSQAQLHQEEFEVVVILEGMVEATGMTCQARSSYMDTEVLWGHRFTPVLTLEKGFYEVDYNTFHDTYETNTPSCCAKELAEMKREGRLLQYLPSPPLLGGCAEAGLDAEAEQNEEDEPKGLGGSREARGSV
Assay type: cell-based
Description: The activity of a compound according to the present invention can be assessed by the following in vitro method. • 1. Buffers: • a. External buffer: 10 mM NaCl, 50 mM Na Gluconate, 80 mM K Gluconate, 1.8 mM CaCl2, 1 mM MgCl2, 10 mM HEPES, 10 mM Glucose, pH 7.4; osmolality […]. • b. Internal buffer: 30 mM KCl, 100 mM K Gluconate, 1 mM MgCl2, 10 mM HEPES, 1 mM EGTA, 10 mM NaCl, pH 7.2; osmolality […]. • 2. Compounds: • a. Prepare seven-fold compound dilution series (10 mM to 20 uM) in 100% DMSO, in 384-well polypropylene plates. • b. Propafenone (Sigma Aldrich, catalog number P4670) is used as a positive control and DMSO for neutral control • c. Resuspend 1 ul of compounds in DMSO into 65.7 ul external buffer in 384-well polypropylene plate and load into Plate 1 section of Molecular Devices Quattro • 3. Quattro setup: • a. Load 384-well Population Patch Plate (Molecular Devices #9000-0902) into Quattro • b. Fill Quattro F-soak trough with 20% DMSO and 50% EtOH • c. Fill Quattro buffer trough with external buffer • d. Attach internal buffer flask to Quattro internal buffer tubing • e. Attach PBS (Phosphate Buffered Saline, minus Ca^++ and Mg^++, pH7.4) bottle to F-head & E-head wash on Quattro • 4. Antibiotic: • a. Resuspend 5.6 mg amphotericin B (Sigma Aldrich, catalog number A2411) in 175 ul DMSO • b. Add the resulting solution to 50 ml internal buffer, mix and attach to antibiotic tubing port on Quattro • 5. Cells: • a. Use GIRK 1/4 HEK293 stable cells (obtained from ChanTest, 14656 Neo Parkway, Cleveland, Ohio 44128) grown to […] confluency in the following cell culture medium: DMEM containing 10% (v/v) Fetal Bovine Serum, Penicillin/Streptomycin (at “1×” concentration from a 100× stock), 0.5 mg/ml G418 and 0.1 mg/ml Zeocin. • b. Wash cells with PBS (minus Ca^++ and Mg^++), Detach cells using Detachin (Genlantis, 11011 Torreyana, San Diego, Calif. 92121), and resuspend in external buffer (5 ml final volume at 2.0-2.1×10^6 cells/ml) • c. Load into cell trough of Quattro • 6. Assay Protocol: • Quattro is controlled using IonWorks v2 software to perform the following steps: • a. Add 3.5 ul cells plus 3.5 ul external buffer to wells of Quattro Patch Plate • b. Circulate amphotericin B and internal buffer onto cells • c. Apply the following voltage protocol: Pulse 1: 15 mV for 300 milliseconds (ms), followed by Pulse 2: −120 mV for 400 ms, then Pulse 3: −15 mV for 400 ms, and finally Pulse 4: −120 mV to 40 mV over 500 ms (this is a voltage ramp). • d. Measure magnitude of inward potassium current at time point between 1200-1220 ms from start of Pulse 1 (i.e. during the voltage ramp phase). • e. Add 3.5 ul of diluted compounds (or DMSO) to wells and repeat steps c-d (final compound concentrations are 50 uM to 0.1 uM, for potent compounds 0.5 uM to 0.01 uM and each concentration is tested in quadruplicate—i.e. in 4 separate wells). • f. The difference between current magnitude pre vs. post-compound gives a measure of GIRK1/4 inhibition. • 7. Data analysis:
IC50 values are calculated by plotting the percentage of current inhibition (normalized to the DMSO-only control) as a function of compound concentration using standard data analysis software.
For `Cc1cc(=O)c2c(OCC(O)CO)ncc(Cl)c2n1-c1c(Cl)cc(C#CC(C)(C)N)cc1Cl` (stereo not shown) [Example 90, 1-(4-(3-Amino-3-methylbut-1-yn-1-yl)-2,6-dichlorophenyl)-8-chloro-5-(2,3-dihydroxypropoxy)-2-methyl-1,6-naphthyridin-4(1H)-one], the IC50 was 0.327 µM.
`Cc1cc(=O)c2c(C(=O)CO)ncc(Cl)c2n1-c1c(Cl)cccc1Cl` [Example 86, 8-Chloro-1-(2,6-dichlorophenyl)-5-(2-hydroxyacetyl)-2-methyl-1,6-naphthyridin-4(1H)-one] gave an IC50 of 0.037 µM.
`Cc1cc(=O)c2c(OCC(O)C(C)(C)O)ncc(Cl)c2n1-c1c(Cl)cccc1Cl` (single isomer, unassigned) [Example 59, 8-chloro-1-(2,6-dichlorophenyl)-5-(2,3-dihydroxy-3-methylbutoxy)-2-methyl-1,6-naphthyridin-4(1H)-one] showed an IC50 of 0.014 µM.
For `Cc1cc(=O)c2c(OCC(O)CO)ncc(Cl)c2n1-c1c(Cl)cccc1Cl` (stereo not shown) [Example 38, 8-chloro-1-(2,6-dichlorophenyl)-5-(2,3-dihydroxypropoxy)-2-methyl-1,6-naphthyridin-4(1H)-one], the IC50 was 0.008 µM.
For `Cc1cc(=O)c2c(-c3cnn(C)c3)cncc2n1-c1c(Cl)cc(C#N)cc1Cl` [Example 73, 3,5-Dichloro-4-(2-methyl-5-(1-methyl-1H-pyrazol-4-yl)-4-oxo-1,7-naphthyridin-1(4H)-yl)benzonitrile], the IC50 was 0.329 µM.
With `Cc1cc(=O)c2c(OCC(C)(CO)CO)ncc(Cl)c2n1-c1c(Cl)cccc1Cl` [Example 41, 8-chloro-1-(2,6-dichlorophenyl)-5-(3-hydroxy-2-(hydroxymethyl)-2-methylpropoxy)-2-methyl-1,6-naphthyridin-4(1H)-one] the IC50 was 0.028 µM.
`Cc1cc(=O)c2c(Nc3nnnn3C)ncc(Cl)c2n1-c1c(Cl)cccc1Cl` [Example 45, 8-chloro-1-(2,6-dichlorophenyl)-2-methyl-5-((1-methyl-1H-tetrazol-5-yl)amino)-1,6-naphthyridin-4(1H)-one] was tested, and the IC50 was 0.149 µM.
In the case of `O=c1cc(CO)n(-c2c(Cl)cccc2Cl)c2c(Cl)cnc(OC(CO)CO)c12` [Example 9, 8-chloro-1-(2,6-dichlorophenyl)-5-((1,3-dihydroxypropan-2-yl)oxy)-2-(hydroxymethyl)-1,6-naphthyridin-4(1H)-one], the IC50 is reported as 0.257 µM.
`CCc1cc2c(c(OCC(O)CO)n1)c(=O)cc(C)n2-c1c(Cl)cccc1CC` (stereo not shown) [Example 67, 1-(2-Chloro-6-ethylphenyl)-5-(2,3-dihydroxypropoxy)-7-ethyl-2-methyl-1,6-naphthyridin-4(1H)-one] was tested, and the IC50 was 0.168 µM.
For `CC(C)(O)C(O)COc1ncc(Cl)c2c1c(=O)cc(CO)n2-c1c(Cl)cccc1Cl` (stereo not shown) [Example 4, 8-chloro-1-(2,6-dichlorophenyl)-5-(2,3-dihydroxy-3-methylbutoxy)-2-(hydroxymethyl)-1,6-naphthyridin-4(1H)-one], the IC50 was 0.141 µM.
`Cc1cc(=O)c2c(OCC(O)CO)ncc(Cl)c2n1-c1c(Cl)cccc1C#N` (stereo not shown) [Example 34, 3-chloro-2-(8-chloro-5-(2,3-dihydroxypropoxy)-2-methyl-4-oxo-1,6-naphthyridin-1(4H)-yl)benzonitrile] showed an IC50 of 0.24 µM.
`Cc1cc(=O)c2c(OCC3COC(C)(C)O3)ncc(Cl)c2n1-c1c(Cl)cc(C#CCN(C)C)cc1Cl` (stereo not shown) [Example 93, 8-Chloro-1-(2,6-dichloro-4-(3-(dimethylamino)prop-1-yn-1-yl)phenyl)-5-((2,2-dimethyl-1,3-dioxolan-4-yl)methoxy)-2-methyl-1,6-naphthyridin-4(1H)-one] gave an IC50 of 0.046 µM.
Molecule `CS(=O)(=O)CCNc1ncc(Cl)c2c1c(=O)cc(CO)n2-c1c(Cl)cccc1Cl` [Example 51, 8-chloro-1-(2,6-dichlorophenyl)-2-(hydroxymethyl)-5-((2-(methylsulfonyl)ethyl)amino)-1,6-naphthyridin-4(1H)-one] has an IC50 of 0.041 µM.
`Cc1cc(=O)c2c(OCCNS(C)(=O)=O)ncc(Cl)c2n1-c1c(Cl)cccc1Cl` [Example 36, N-(2-((8-chloro-1-(2,6-dichlorophenyl)-2-methyl-4-oxo-1,4-dihydro-1,6-naphthyridin-5-yl)oxy)ethyl)methanesulfonamide] gave an IC50 of 0.009 µM.
With `Cc1cc(=O)c2c(NS(=O)(=O)c3cn[nH]c3)cncc2n1-c1c(Cl)cc(C#N)cc1Cl` [Example 70, N-(1-(2,6-Dichloro-4-cyanophenyl)-2-methyl-4-oxo-1,4-dihydro-1,7-naphthyridin-5-yl)-1H-pyrazole-4-sulfonamide] the IC50 was 3.05 µM.
`O=c1cc(CO)n(-c2c(Cl)cccc2Cl)c2c(Cl)cnc(CC(O)CO)c12` (single isomer, unassigned) [Example 80, 8-Chloro-1-(2,6-dichlorophenyl)-5-(2,3-dihydroxypropyl)-2-(hydroxymethyl)-1,6-naphthyridin-4(1H)-one] showed an IC50 of 0.365 µM.
For `O=c1cc(CO)n(-c2c(Cl)cccc2Cl)c2c(Cl)cnc(CC(O)CO)c12` (single isomer, unassigned) [Example 79, 8-Chloro-1-(2,6-dichlorophenyl)-5-(2,3-dihydroxypropyl)-2-(hydroxymethyl)-1,6-naphthyridin-4(1H)-one], the IC50 was 0.299 µM.
`Cc1cc(=O)c2c(NCCNS(C)(=O)=O)cncc2n1-c1c(Cl)cc(C#N)cc1Cl` [Example 22, N-(2-((1-(2,6-dichloro-4-cyanophenyl)-2-methyl-4-oxo-1,4-dihydro-1,7-naphthyridin-5-yl)amino)ethyl)methanesulfonamide] gave an IC50 of 0.148 µM.
Work on `O=c1cc(CO)n(-c2c(Cl)cccc2Cl)c2c(Cl)cnc(COCC(O)CO)c12` (stereo not shown) [Example 87, 8-Chloro-1-(2,6-dichlorophenyl)-5-((2,3-dihydroxypropoxy)methyl)-2-(hydroxymethyl)-1,6-naphthyridin-4(1H)-one] yielded an IC50 of 2.27 µM.
`COc1cc2c(c(OCC(O)CO)n1)c(=O)cc(C)n2-c1c(Cl)cccc1Cl` (stereo not shown) [Example 68, 1-(2,6-Dichlorophenyl)-5-(2,3-dihydroxpropoxy)-7-methoxy-2-methyl-1,6-naphthyridin-4(1H)-one] gave an IC50 of 0.234 µM.
In the case of `Cc1cc(=O)c2c(OCC(O)CO)cncc2n1-c1c(Cl)cc(C#N)cc1Cl` (stereo not shown) [Example 18, 3,5-dichloro-4-(5-(2,3-dihydroxypropoxy)-2-methyl-4-oxo-1,7-naphthyridin-1(4H)-yl)benzonitrile], the IC50 is reported as 1.86 µM.
Molecule `Cc1cc(=O)c2c(OCC(O)CO)ncc(C3CC3)c2n1-c1c(Cl)cccc1Cl` (stereo not shown) [Example 52, 8-cyclopropyl-1-(2,6-dichlorophenyl)-5-(2,3-dihydroxypropoxy)-2-methyl-1,6-naphthyridin-4(1H)-one] has an IC50 of 0.073 µM.
In the case of `O=c1cc(CO)n(-c2c(Cl)cc(F)cc2Cl)c2c(Cl)cnc(OCC(O)CO)c12` (stereo not shown) [Example 60, 8-Chloro-1-(2,6-dichloro-4-fluorophenyl)-5-(2,3-dihydroxypropoxy)-2-(hydroxymethyl)-1,6-naphthyridin-4(1H)-one], the IC50 is reported as 0.261 µM.
In the case of `O=c1cc(CO)n(-c2c(Cl)cccc2Cl)c2c(Cl)cnc(CC(O)CO)c12` (stereo not shown) [Example 78, 8-Chloro-1-(2,6-dichlorophenyl)-5-(2,3-dihydroxypropyl)-2-(hydroxymethyl)-1,6-naphthyridin-4(1H)-one], the IC50 is reported as 0.352 µM.
`COCc1cc(=O)c2c(OCC(O)CO)ncc(Cl)c2n1-c1c(Cl)cccc1Cl` (stereo not shown) [Example 54, 8-chloro-1-(2,6-dichlorophenyl)-5-(2,3-dihydroxypropoxy)-2-(methoxymethyl)-1,6-naphthyridin-4(1H)-one] was tested, and the IC50 was 0.029 µM.
